Laboratory results from patent US9351983B2, “Use of glycerophosphoinositols for the treatment of septic shock” (CONSIGLIO NAZIONALE DELLE RICERCHE, priority 2012, dated 2016).

System: interleukin-1 receptor II (IL-1RII) gene expression
Experiment: In vitro model of human inflammation: real-time PCR of IL-1RII
Format: cell-based
Settings: 300 μM; 4 h, 14 h, 24 h, 48 h; one donor, preliminary
Experimental: FIG. 15—Glycerophosphoinositol modulates the kinetic transcriptional profile of genes involved in the regulation of inflammatory response. Human monocytes were purified from one donor and treated according to the in vitro model of human inflammation, previously described, in absence (blue line) or in presence (red line) of 300 μM glycerophosphoinositol. In detail glycerophosphoinositol was added to cells in culture 20 minutes before LPS, IL-10 and TGF-β, that is, again after each wash. Samples were collected at time 4 h, 14 h, 24 h, 48 h; freshly isolated monocytes have been considered as control at time 0 h. Total RNA was extracted from cells by RNeasy kit (Qiagen) and reverse-transcribed to cDNA (QuantiTect Reverse Transcription kit, Qiagen). […] Each sample was measured in triplicate and data were analyzed with Pfaffl methods for comparing relative expression data. The measurement of mRNA expression was expressed as fold-increase over control (time 0 h). […]
Total RNA was extracted with RNeasy kit (Qiagen) according to the manufacturer's instructions. Both integrity and quality of total RNA were checked by agarose gel electrophoresis and the concentration of each RNA sample was assessed spectrophotometrically. Total RNAs were reverse-transcribed to cDNA (QuantiTect Reverse Transcription kit, Qiagen) with oligo-dT and random primers, according to manufacturer's protocol. […]

Question: With `O=P(O)(OCC(O)CO)OC1C(O)C(O)C(O)C(O)C1O` (stereo not shown) [GroPIns, glycerophosphoinositol] as the compound, how does the “IL-1RII mRNA expression” value read?
Answer: favoured the expression
